Source: ChEMBL document CHEMBL3576835, “Design and synthesis of potent 1,2,4-trisubstituted imidazolinone derivatives with dual p38αMAPK and ERK1/2 inhibitory activity” (Eur J Med Chem, 2015)

Legend:
[1] = target: Mitogen-activated protein kinase 14 (Homo sapiens, UniProt Q16539); experiment: Inhibition of p38alpha MAP kinase (unknown origin) using GFP-ATF2 as substrate after 1 hr by TR-FRET assay
[2] = target: Mitogen-activated protein kinase 3 (Homo sapiens, UniProt P27361); experiment: Inhibition of ERK1 (unknown origin) using GFP-ATF2 as substrate after 1 hr by TR-FRET assay
Sequence of Mitogen-activated protein kinase 3 (P27361 whole entry): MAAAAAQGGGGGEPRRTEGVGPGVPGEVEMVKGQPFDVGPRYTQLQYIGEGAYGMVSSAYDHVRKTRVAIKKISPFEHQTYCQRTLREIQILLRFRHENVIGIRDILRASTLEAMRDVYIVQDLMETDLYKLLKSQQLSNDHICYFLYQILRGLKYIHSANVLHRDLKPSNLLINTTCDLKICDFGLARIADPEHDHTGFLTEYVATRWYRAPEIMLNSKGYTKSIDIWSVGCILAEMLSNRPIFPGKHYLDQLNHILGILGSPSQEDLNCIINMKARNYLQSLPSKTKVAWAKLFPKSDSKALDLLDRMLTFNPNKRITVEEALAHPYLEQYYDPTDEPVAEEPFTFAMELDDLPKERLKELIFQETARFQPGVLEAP

[3] = target: Mitogen-activated protein kinase 1 (Homo sapiens, UniProt P28482); experiment: Inhibition of ERK2 (unknown origin) using GFP-ATF2 as substrate after 1 hr by TR-FRET assay
Sequence of Mitogen-activated protein kinase 1 (P28482 whole entry): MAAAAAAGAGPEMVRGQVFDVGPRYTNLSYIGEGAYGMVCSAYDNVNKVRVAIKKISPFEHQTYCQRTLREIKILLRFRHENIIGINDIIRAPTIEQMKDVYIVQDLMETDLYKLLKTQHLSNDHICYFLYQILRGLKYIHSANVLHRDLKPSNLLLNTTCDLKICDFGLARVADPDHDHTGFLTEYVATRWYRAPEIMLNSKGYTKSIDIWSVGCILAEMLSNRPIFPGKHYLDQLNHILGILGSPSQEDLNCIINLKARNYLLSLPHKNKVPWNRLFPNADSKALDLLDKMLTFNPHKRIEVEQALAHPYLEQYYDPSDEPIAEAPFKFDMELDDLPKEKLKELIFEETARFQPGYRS

[4] = Antiproliferative activity against human COLO205 cells assessed as inhibition of cell vaibility after 72 hrs by MTT assay; assay type: functional, cell-based; details: COLO 205, 72 h
[5] = Antiproliferative activity against human LOXIMVI cells assessed as inhibition of cell vaibility after 72 hrs by MTT assay; assay type: functional, cell-based; details: LOX IMVI
T47D [6] = experiment: Selectivity index, ratio of IC50 for African green monkey Vero cells to IC50 for human T47D cells; assay type: functional
T47D [7] = experiment: Antiproliferative activity against human T47D cells assessed as inhibition of cell vaibility after 72 hrs by MTT assay; assay type: functional, cell-based
HT-29 [8] = experiment: Antiproliferative activity against human HT-29 cells assessed as inhibition of cell vaibility after 72 hrs by MTT assay; assay type: functional, cell-based; details: HT-29, 72 h
Vero [9] = experiment: Cytotoxicity against African green monkey Vero cells assessed as inhibition of cell viability after 72 hrs by MTT assay; assay type: cell-based; details: Chlorocebus sabaeus
Vero [10] = experiment: Selectivity index, ratio of IC50 for African green monkey Vero cells to IC50 for human COLO205 cells; assay type: functional
Vero [11] = experiment: Selectivity index, ratio of IC50 for African green monkey Vero cells to IC50 for human MDA-MB-435 cells; assay type: functional
A549 [12] = experiment: Antiproliferative activity against human A549 cells assessed as inhibition of cell vaibility after 72 hrs by MTT assay; assay type: functional, cell-based; details: A549, 72 h
MDA-MB-435 = experiment: Antiproliferative activity against human MDA-MB-435 cells assessed as inhibition of cell vaibility after 72 hrs by MTT assay; assay type: functional, cell-based; details: MDA-MB-435, 72 h
Vero [13] = experiment: Selectivity index, ratio of IC50 for African green monkey Vero cells to IC50 for human PC3 cells; assay type: functional
MCF7 [14] = experiment: Selectivity index, ratio of IC50 for African green monkey Vero cells to IC50 for human MCF7 cells; assay type: functional
Vero [15] = experiment: Selectivity index, ratio of IC50 for African green monkey Vero cells to IC50 for human LOXIMVI cells; assay type: functional
HT-29 [16] = experiment: Selectivity index, ratio of IC50 for African green monkey Vero cells to IC50 for human HT-29 cells; assay type: functional
K562 = experiment: Antiproliferative activity against human K562 cells assessed as inhibition of cell vaibility after 72 hrs by MTT assay; assay type: functional, cell-based; details: K562, 72 h
MCF7 [17] = experiment: Antiproliferative activity against human MCF7 cells assessed as inhibition of cell vaibility after 72 hrs by MTT assay; assay type: functional, cell-based; details: MCF7, 72 h
PC-3 = experiment: Antiproliferative activity against human PC3 cells assessed as inhibition of cell vaibility after 72 hrs by MTT assay; assay type: functional, cell-based; details: PC-3, 72 h
A549 [18] = experiment: Selectivity index, ratio of IC50 for African green monkey Vero cells to IC50 for human A549 cells; assay type: functional

Sequence of Mitogen-activated protein kinase 14 (Q16539 whole entry): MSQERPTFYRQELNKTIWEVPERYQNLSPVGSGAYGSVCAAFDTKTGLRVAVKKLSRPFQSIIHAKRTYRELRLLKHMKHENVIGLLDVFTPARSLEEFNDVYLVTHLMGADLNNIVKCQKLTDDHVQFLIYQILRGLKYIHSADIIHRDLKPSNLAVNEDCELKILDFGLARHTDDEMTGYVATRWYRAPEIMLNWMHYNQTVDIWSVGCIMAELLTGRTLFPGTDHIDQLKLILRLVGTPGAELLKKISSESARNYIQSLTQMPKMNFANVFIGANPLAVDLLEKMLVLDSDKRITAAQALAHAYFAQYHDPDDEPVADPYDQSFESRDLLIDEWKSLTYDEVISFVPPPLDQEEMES

SMILES	IC50 [1] [µM]	IC50 [2] [µM]	IC50 [3] [µM]	other results
COc1cccc(NC(=O)COc2ccc(/C=C3\N=C(c4ccccc4)N(c4cccc(OC)c4)C3=O)cc2)c1	0.0065	0.057	0.0054	–
COc1ccc(N2C(=O)/C(=C/c3ccc(OCC(=O)Nc4ccccc4OC)cc3)N=C2c2ccccc2)cc1	0.034	0.043	0.089	–
COc1ccc(NC(=O)COc2ccc(/C=C3\N=C(c4ccccc4)N(c4ccc(OC)cc4)C3=O)cc2)cc1	0.345	0.023	0.0023	–
COc1ccc(NC(=O)COc2ccc(/C=C3\N=C(c4ccccc4)N(c4cccc(OC)c4)C3=O)cc2)cc1	0.0043	0.076	0.0043	–
COc1ccc(N2C(=O)/C(=C/c3ccc(OCC(=O)Nc4cccc(Cl)c4)cc3)N=C2c2ccccc2)cc1	0.0045	0.035	0.007	–
COc1cccc(N2C(=O)/C(=C/c3ccc(OCC(=O)Nc4ccccc4)cc3)N=C2c2ccccc2)c1	0.035	0.065	0.054	–
COc1cccc(N2C(=O)/C(=C/c3ccc(OCC(=O)Nc4ccc(C)cc4)cc3)N=C2c2ccccc2)c1	0.0045	0.025	0.0032	IC50 [4]: 9.4 µM; IC50 [5]: 0.76 µM; Ratio IC50 (T47D [6]): 25.88; IC50 (T47D [7]): 0.67 µM; IC50 (HT-29 [8]): 5.8 µM; IC50 (Vero [9]): 17.3 µM; Ratio IC50 (Vero [10]): 1.85; Ratio IC50 (Vero [11]): 75.39; IC50 (A549 [12]): 6.5 µM; IC50 (MDA-MB-435): 0.23 µM; Ratio IC50 (Vero [13]): 20.16; Ratio IC50 (MCF7 [14]): 46.86; Ratio IC50 (Vero [15]): 22.81; Ratio IC50 (HT-29 [16]): 2.98; IC50 (K562): > 100 µM; IC50 (MCF7 [17]): 0.37 µM; IC50 (PC-3): 0.86 µM; Ratio IC50 (A549 [18]): 2.66
COc1ccc(N2C(=O)/C(=C/c3ccc(OCC(=O)Nc4cccc(C)c4)cc3)N=C2c2ccccc2)cc1	0.077	0.089	0.078	–
COc1ccc(N2C(=O)/C(=C/c3ccc(OCC(=O)Nc4ccc(C)cc4)cc3)N=C2c2ccccc2)cc1	0.345	0.023	0.043	–
COc1ccc(N2C(=O)/C(=C/c3ccc(OCC(=O)Nc4cccc(OC)c4)cc3)N=C2c2ccccc2)cc1	0.023	0.021	0.021	–
COc1ccc(N2C(=O)/C(=C/c3ccc(OCC(=O)Nc4ccc(Cl)cc4)cc3)N=C2c2ccccc2)cc1	0.044	0.047	0.0045	–
COc1ccc(N2C(=O)/C(=C/c3ccc(OCC(=O)Nc4ccccc4Cl)cc3)N=C2c2ccccc2)cc1	0.0047	0.024	0.0035	IC50 [4]: 4.5 µM; IC50 [5]: 0.13 µM; Ratio IC50 (T47D [6]): 26.4; IC50 (T47D [7]): 0.5 µM; IC50 (HT-29 [8]): 4.5 µM; IC50 (Vero [9]): 13.2 µM; Ratio IC50 (Vero [10]): 2.93; Ratio IC50 (Vero [11]): 264; IC50 (A549 [12]): 4.9 µM; IC50 (MDA-MB-435): 0.05 µM; Ratio IC50 (Vero [13]): 13.33; Ratio IC50 (MCF7 [14]): 24.9; Ratio IC50 (Vero [15]): 101.54; Ratio IC50 (HT-29 [16]): 2.93; IC50 (K562): > 100 µM; IC50 (MCF7 [17]): 0.53 µM; IC50 (PC-3): 0.99 µM; Ratio IC50 (A549 [18]): 2.69
CNC(=O)c1cc(Oc2ccc(NC(=O)Nc3ccc(Cl)c(C(F)(F)F)c3)cc2)ccn1 [SORAFENIB]	–	–	–	IC50 [4]: 0.87 µM; IC50 [5]: 4.25 µM; IC50 (T47D [7]): 0.61 µM; IC50 (HT-29 [8]): 0.39 µM; IC50 (A549 [12]): 3.19 µM; IC50 (MDA-MB-435): 1.67 µM; IC50 (K562): 1.22 µM; IC50 (MCF7 [17]): 0.78 µM; IC50 (PC-3): 4.13 µM
COc1ccc(N2C(=O)/C(=C/c3ccc(OCC(=O)Nc4ccccc4)cc3)N=C2c2ccccc2)cc1	0.354	0.023	0.023	–
COc1cccc(N2C(=O)/C(=C/c3ccc(OCC(=O)Nc4ccccc4Cl)cc3)N=C2c2ccccc2)c1	0.0056	0.087	0.0053	–
COc1cccc(N2C(=O)/C(=C/c3ccc(OCC(=O)Nc4ccc(Cl)cc4)cc3)N=C2c2ccccc2)c1	0.0046	0.095	0.0046	–
COc1cccc(N2C(=O)/C(=C/c3ccc(OCC(=O)Nc4cccc(C)c4)cc3)N=C2c2ccccc2)c1	0.087	0.02	0.043	–
COc1cccc(N2C(=O)/C(=C/c3ccc(OCC(=O)Nc4ccccc4OC)cc3)N=C2c2ccccc2)c1	0.054	0.046	0.0047	–
COc1cccc(N2C(=O)/C(=C/c3ccc(OCC(=O)Nc4cccc(Cl)c4)cc3)N=C2c2ccccc2)c1	0.0037	0.089	0.0034	–
COc1ccc(N2C(=O)/C(=C/c3ccc(OCC(=O)Nc4ccccc4C)cc3)N=C2c2ccccc2)cc1	0.056	0.032	0.023	–
COc1cccc(N2C(=O)/C(=C/c3ccc(OCC(=O)Nc4ccccc4C)cc3)N=C2c2ccccc2)c1	0.066	0.043	0.044	–
